Measured values taken from patent US20230321062A1, “COMBINATION THERAPIES” (Mirati Therapeutics, Inc., priority 2020, published 2023).
Like-named read-outs stand apart in the source and are kept apart here. Square brackets hold non-standard residues; d marks the D form. Peptide text beside a SMILES is read from it. * marks the point of attachment. Dolaproine = CO[C@@H]([C@@H]1CCCN1)[C@@H](C)C(=O)O; Dil = CC[C@H](C)[C@H](NC)[C@@H](CC(=O)O)OC; X1 = C[C@@H](N*)[C@@H](O)c1ccccc1; NMeV = CN[C@H](C(=O)O)C(C)C

Tests used:
[1] = cited from earlier work; for steady-state concentrations reached after: 1.25 mg/kg Q3W regimen; for exposure (AUC) in mild, moderate or severe renal impairment compared to normal renal function: 1.25 mg/kg enfortumab; for elimination half-life / mean clearance (CL): after enfortumab dosing; for mean clearance (CL): patients
[2] = test system: systemic/spleen T lymphocytes and MDSCs; test: pilot studies in syngeneic mouse tumor models (immune cells); type: in vivo
Text: (§1) Receptor tyrosine kinases (RTKs) are key regulators of signaling pathways leading to cell growth, survival, and migration. These kinases are dysregulated in many cancers through overexpression, genetic alteration or co-expression with high affinity ligands. Multiple sitravatinib RTK targets are genetically altered in a variety of cancers and act as oncogenic drivers, promoting cancer development and progression.

target RTKs [3] = test: oncogenic functions: MET-dependent cell viability and migration, endothelial tube formation and angiogenesis; details: endothelial tube formation, angiogenesis
target RTKs [4] = test: cell-based assays of phosphorylation and kinase dependent function
Caco-2 cell lines = test: bidirectional permeability study with Caco-2 cell lines; type: in vitro ADME; details: Caco-2 bidirectional
in vivo = test: in vivo; parameters: species or system dogs; details: dog
[5] = pharmacokinetics after single dose of sitravatinib free base capsules; type: in vivo
P-glycoprotein (P-gp) = biological target: T1, P-glycoprotein (P-gp) (Homo sapiens, UniProt P08183); test: P-gp substrate assessment in Caco-2 bidirectional permeability study; type: in vitro ADME
T1 construct: In a bidirectional permeability study with Caco-2 cell lines; endogenous in cells; host or cells: Caco-2

[6] = neurological functional observation battery and respiratory evaluations; type: in vivo; details: rats, doses up to 25 mg/kg
CYP2C19 = CYP2C19 (Homo sapiens, UniProt P33261); test: direct CYP inhibition; type: in vitro ADME
CYP2C19, sequence (P33261 whole entry): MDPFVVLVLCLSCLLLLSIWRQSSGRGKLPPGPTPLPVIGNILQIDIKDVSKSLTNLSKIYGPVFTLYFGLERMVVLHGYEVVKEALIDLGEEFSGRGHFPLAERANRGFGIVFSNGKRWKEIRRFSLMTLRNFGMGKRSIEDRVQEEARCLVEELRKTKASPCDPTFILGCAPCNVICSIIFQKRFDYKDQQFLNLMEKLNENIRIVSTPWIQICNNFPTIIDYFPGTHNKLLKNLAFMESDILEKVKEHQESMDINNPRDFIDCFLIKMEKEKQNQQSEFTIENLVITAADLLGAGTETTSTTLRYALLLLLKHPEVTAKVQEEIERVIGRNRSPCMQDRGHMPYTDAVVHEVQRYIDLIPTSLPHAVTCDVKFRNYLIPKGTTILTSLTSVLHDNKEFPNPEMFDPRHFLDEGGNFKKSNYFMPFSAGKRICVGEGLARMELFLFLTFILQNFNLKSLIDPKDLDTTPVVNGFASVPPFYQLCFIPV

CYP enzymes = test: time- or metabolism-dependent CYP inhibition; type: in vitro ADME
BCRP = biological target: T2, BCRP (Homo sapiens, UniProt Q9UNQ0); type: in vitro ADME
T2 construct: In a bidirectional permeability study with Caco-2 cell lines; endogenous in cells; host or cells: Caco-2

hERG = hERG (Homo sapiens, UniProt Q12809); test: hERG assay (in vitro); type: cell-based; details: read-out: IC50 on the potassium current
hERG, sequence (Q12809 whole entry): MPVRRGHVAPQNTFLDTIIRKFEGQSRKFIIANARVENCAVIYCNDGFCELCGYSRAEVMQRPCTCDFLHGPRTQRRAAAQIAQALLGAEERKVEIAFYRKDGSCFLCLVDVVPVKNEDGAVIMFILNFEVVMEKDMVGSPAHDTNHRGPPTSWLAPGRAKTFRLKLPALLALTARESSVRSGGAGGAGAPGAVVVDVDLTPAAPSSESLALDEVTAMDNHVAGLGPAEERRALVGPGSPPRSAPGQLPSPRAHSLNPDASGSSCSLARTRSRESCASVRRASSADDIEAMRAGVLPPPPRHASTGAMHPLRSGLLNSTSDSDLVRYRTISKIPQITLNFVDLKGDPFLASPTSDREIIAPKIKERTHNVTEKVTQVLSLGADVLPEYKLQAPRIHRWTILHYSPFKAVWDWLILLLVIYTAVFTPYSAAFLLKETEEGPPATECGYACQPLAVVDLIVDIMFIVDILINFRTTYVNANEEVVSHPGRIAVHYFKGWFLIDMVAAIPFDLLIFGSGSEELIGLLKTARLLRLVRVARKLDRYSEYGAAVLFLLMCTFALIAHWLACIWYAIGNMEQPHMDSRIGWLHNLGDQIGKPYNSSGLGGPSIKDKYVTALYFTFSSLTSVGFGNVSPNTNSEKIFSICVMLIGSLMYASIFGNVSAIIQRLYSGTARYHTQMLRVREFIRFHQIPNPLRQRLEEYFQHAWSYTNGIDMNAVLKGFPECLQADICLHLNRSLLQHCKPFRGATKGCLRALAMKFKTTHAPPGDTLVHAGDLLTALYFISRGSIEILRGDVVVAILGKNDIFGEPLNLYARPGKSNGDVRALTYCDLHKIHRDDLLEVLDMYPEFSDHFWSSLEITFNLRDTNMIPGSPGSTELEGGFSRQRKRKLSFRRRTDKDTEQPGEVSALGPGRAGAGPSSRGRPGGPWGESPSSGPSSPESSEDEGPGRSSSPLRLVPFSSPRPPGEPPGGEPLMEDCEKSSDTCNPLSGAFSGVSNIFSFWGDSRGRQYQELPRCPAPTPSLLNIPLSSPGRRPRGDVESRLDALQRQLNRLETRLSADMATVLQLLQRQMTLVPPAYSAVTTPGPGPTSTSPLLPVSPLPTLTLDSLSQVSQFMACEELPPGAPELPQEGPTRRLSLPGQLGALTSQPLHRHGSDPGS

CYP2E1 = CYP2E1 (Homo sapiens, UniProt P05181); test: direct CYP inhibition; type: in vitro ADME
CYP2E1, sequence (P05181 whole entry): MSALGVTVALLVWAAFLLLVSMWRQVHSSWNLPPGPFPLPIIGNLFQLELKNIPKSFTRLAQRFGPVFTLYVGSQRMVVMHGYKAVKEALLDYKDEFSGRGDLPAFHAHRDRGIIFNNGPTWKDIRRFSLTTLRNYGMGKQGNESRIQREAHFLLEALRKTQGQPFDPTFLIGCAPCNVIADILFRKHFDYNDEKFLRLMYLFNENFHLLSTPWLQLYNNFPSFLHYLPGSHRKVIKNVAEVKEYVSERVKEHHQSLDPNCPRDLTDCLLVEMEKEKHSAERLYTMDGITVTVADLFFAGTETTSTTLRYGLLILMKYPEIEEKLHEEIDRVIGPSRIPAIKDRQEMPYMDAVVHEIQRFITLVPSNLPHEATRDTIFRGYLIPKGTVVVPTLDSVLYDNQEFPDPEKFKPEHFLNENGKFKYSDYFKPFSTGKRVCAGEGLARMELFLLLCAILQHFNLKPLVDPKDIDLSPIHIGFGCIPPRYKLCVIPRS

CYP2D6 = CYP2D6 (Homo sapiens, UniProt P10635); test: direct CYP inhibition; type: in vitro ADME
CYP2D6, sequence (P10635 whole entry): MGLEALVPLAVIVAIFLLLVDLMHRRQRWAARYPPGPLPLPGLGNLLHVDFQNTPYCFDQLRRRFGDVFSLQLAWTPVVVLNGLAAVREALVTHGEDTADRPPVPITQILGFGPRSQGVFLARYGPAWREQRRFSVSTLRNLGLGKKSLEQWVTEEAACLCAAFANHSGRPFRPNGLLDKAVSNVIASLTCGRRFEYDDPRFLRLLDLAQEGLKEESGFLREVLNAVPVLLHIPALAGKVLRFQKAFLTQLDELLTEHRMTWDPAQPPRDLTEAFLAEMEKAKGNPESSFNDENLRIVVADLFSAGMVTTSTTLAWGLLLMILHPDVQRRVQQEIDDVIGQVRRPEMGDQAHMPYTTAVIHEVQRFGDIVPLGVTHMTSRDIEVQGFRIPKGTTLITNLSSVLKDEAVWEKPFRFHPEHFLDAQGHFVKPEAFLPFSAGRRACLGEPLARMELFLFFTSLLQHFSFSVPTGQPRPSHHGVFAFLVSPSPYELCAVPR

cytochrome P-450 = type: in vitro ADME; details: human
[7] = test system: RET, CBL, CHR4q12, DDR and Trk; details: cited from earlier work
PD-L1 on tumor cells = test: PD-L1 expression on tumor cells in vitro and in vivo; type: cell-based
Text: as §1

CYP2A6 = CYP2A6 (Homo sapiens, UniProt P11509); test: direct CYP inhibition; type: in vitro ADME
CYP2A6, sequence (P11509 whole entry): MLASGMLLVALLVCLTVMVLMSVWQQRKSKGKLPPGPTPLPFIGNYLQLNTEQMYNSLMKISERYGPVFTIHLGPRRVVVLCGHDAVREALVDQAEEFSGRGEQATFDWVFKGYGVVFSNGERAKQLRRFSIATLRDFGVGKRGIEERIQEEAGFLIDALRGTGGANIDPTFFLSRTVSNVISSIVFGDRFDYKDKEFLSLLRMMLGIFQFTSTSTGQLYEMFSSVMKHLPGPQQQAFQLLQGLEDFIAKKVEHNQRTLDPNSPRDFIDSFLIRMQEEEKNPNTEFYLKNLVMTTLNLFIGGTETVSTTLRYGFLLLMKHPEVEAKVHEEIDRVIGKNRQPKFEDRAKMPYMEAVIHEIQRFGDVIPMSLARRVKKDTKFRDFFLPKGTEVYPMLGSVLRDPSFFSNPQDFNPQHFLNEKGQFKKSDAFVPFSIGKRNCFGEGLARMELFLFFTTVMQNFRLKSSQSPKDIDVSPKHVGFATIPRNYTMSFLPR

CYP1A2 = CYP1A2 (Homo sapiens, UniProt P05177); test: direct CYP inhibition; type: in vitro ADME
CYP2C9 = CYP2C9 (Homo sapiens, UniProt P11712); test: direct CYP inhibition; type: in vitro ADME
CYP2C9, sequence (P11712 whole entry): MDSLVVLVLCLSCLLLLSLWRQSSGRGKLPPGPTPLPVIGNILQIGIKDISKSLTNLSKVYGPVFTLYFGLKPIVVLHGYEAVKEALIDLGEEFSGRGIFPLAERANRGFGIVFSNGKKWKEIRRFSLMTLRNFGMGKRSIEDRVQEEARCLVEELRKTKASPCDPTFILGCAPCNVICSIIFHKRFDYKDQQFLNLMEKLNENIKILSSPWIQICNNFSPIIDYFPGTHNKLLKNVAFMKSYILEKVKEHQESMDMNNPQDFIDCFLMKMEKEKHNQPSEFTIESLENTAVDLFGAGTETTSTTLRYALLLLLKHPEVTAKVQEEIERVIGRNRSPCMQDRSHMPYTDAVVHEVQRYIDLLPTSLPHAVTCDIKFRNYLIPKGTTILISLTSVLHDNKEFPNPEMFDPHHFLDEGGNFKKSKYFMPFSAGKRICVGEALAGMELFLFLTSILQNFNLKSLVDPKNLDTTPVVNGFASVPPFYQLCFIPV

[8] = test system: MET, Axl, MERTK, VEGFR family, PDGFR family, KIT, FLT3, Trk family, RET, DDR2, and selected Eph family members
[9] = biological target: T3, Breast Cancer Resistance Protein (BCRP) (Homo sapiens, UniProt Q9UNQ0); test: BCRP substrate assessment in Caco-2 bidirectional permeability study; type: in vitro ADME
T3 construct: In a bidirectional permeability study with Caco-2 cell lines; endogenous in cells; host or cells: Caco-2

[10] = test system: human tumor xenograft models; test: human tumor xenograft models; details: mice, broad spectrum of models
human plasma proteins = type: in vitro ADME
P-gp = biological target: T4, P-gp (Homo sapiens, UniProt P08183); type: in vitro ADME
T4 construct: In a bidirectional permeability study with Caco-2 cell lines; endogenous in cells; host or cells: Caco-2

CYP2B6 = CYP2B6 (Homo sapiens, UniProt P20813); test: direct CYP inhibition; type: in vitro ADME
CYP2B6, sequence (P20813 whole entry): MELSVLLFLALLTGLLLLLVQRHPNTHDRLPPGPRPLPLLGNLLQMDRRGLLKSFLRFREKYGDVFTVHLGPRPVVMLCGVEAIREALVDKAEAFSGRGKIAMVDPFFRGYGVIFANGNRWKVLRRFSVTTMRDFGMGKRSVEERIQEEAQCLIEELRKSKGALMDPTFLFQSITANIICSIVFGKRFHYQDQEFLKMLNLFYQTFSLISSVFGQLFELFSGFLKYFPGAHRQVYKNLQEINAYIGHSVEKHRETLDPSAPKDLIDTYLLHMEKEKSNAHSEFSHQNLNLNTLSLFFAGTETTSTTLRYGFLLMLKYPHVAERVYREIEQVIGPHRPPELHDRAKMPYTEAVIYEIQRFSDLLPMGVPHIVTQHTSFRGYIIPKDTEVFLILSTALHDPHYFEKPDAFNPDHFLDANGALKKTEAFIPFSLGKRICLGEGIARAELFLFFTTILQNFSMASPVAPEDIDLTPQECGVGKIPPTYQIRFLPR

CYP2C8 = CYP2C8 (Homo sapiens, UniProt P10632); test: direct CYP inhibition; type: in vitro ADME
CYP2C8, sequence (P10632 whole entry): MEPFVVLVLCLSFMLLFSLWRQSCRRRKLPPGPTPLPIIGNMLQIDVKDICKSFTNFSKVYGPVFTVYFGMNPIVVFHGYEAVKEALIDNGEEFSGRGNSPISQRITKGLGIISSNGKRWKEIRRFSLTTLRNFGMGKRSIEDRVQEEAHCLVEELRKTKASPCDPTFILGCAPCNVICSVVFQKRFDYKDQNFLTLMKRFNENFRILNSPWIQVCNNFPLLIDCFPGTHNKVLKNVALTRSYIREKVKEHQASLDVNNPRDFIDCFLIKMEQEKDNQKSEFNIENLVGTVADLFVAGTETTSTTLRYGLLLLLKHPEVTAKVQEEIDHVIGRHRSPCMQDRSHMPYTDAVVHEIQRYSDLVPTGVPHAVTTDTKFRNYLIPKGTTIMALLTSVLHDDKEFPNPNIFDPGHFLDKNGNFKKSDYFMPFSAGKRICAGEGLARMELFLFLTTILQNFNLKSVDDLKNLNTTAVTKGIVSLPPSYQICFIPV

Nectin-4 = biological target: T5, Nectin-4 (Homo sapiens, UniProt Q96NY8); details: cited from earlier work
T5 construct: host or cells: cells that express Nectin-4
T5 sequence (Q96NY8 32-510): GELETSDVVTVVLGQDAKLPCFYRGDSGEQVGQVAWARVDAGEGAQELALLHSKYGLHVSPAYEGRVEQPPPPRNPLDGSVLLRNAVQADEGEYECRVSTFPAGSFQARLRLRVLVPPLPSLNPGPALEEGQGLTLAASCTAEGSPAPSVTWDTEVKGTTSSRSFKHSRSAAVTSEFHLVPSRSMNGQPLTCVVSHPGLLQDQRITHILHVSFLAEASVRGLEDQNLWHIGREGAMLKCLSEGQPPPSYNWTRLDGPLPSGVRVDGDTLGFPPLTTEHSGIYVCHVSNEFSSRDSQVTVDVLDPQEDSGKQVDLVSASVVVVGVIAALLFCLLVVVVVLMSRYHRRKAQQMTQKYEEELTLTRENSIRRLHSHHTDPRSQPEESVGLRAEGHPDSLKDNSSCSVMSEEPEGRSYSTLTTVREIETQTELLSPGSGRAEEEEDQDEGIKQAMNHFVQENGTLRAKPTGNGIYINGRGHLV

Urothelial Carcinoma [11] = details: cited from earlier work
Urothelial Carcinoma [12] = details: EV-201; cited from earlier work
[13] = cited from earlier work
Urothelial Carcinoma [14] = details: cited from earlier work; remark: listed apart in the source
Urothelial Carcinoma [15] = details: cited from earlier work; remark: listed apart in the source
[16] = KEYNOTE-052, overall population
[17] = KEYNOTE-052, patients with CPS ≥10

## CC[C@H](C)[C@@H]([C@@H](CC(=O)N1CCC[C@H]1[C@H](OC)[C@@H](C)C(=O)N[C@H](C)[C@@H](O)c1ccccc1)OC)N(C)C(=O)[C@@H](NC(=O)[C@@H](NC)C(C)C)C(C)C [MMAE, monomethyl auristatin E] (H-[NMeV]V[Dil][Dolaproine]-X1)
[1]
  steady-state concentrations reached after: 1 treatment cycle
  exposure (AUC) in mild, moderate or severe renal impairment compared to normal renal function: No significant differences
  elimination half-life: 57.6 h
  mean clearance (CL): 2.7 L/h
[1]; in vivo
  accumulation following repeat administration of enfortumab: minimal accumulation
  time until which plasma concentrations increased after enfortumab dosing: ~2 days
[1]; population PK, n=31
  AUC increase in patients with mild hepatic impairment compared to normal hepatic function: 48%

## COCCNCc1ccc(-c2cc3nccc(Oc4ccc(NC(=O)C5(C(=O)Nc6ccc(F)cc6)CC5)cc4F)c3s2)nc1 [sitravatinib, N-(3-Fluoro-4-(2-(5-((2-methoxyethylamino)methyl)pyridin-2-yl)thieno[3,2-b]pyridin-7-yloxy)phenyl)-N-(4-fluorophenyl)cyclopropane-1,1-dicarboxamide]
[2]
  systemic MDSCs: reduces the number
  systemic/spleen CD4+ and CD8+ T lymphocytes: increases the proliferation and fraction
Target RTKs [3]
  oncogenic functions associated with target RTKs: inhibited oncogenic functions
Target RTKs [4]
  phosphorylation and kinase dependent function: inhibited phosphorylation and kinase dependent function
Caco-2 cell lines
  permeability classification: highly permeable
In vivo
  vascular pressures: Minor increases
In vivo; 4 mg/kg
  concentration at 6 hr: 72 ng/mL
[5]; doses up to 200 mg
  dose proportionality of Cmax and AUC: dose proportional
[5]; human, in vivo, oral administration, read-out: mean elimination half life
  half-life: 42 to 58 h
P-glycoprotein (P-gp)
  substrate of P-gp: not a substrate
[6]
  neurological functional observation battery and respiratory evaluations (tidal volume, respiration rate, minute volume): did not reveal any sitravatinib related effects
CYP2C19
  IC50: 10 µM
CYP enzymes
  time- or metabolism-dependent inhibition of any of the CYP enzymes evaluated: little or no evidence
BCRP
  IC50: 1.51 µM
hERG
  IC50: 0.6 µM
CYP2E1
  direct inhibition of CYP2E1: little or no evidence
CYP2D6
  IC50: 1.9 µM
Cytochrome P-450
  CYP enzymes involved in metabolism: multiple enzymes, including CYP 1A2, 2A6, 2B6, 2C8, 2C9, 2D6, 2E1, and 3A4 are involved
[7]
  inhibition of a closely related spectrum of tyrosine kinases: potent inhibition
PD-L1 on tumor cells
  expression of PD-L1 on tumor cells: increase expression of PD-L1
CYP2A6
  direct inhibition of CYP2A6: little or no evidence
CYP1A2
  direct inhibition of CYP1A2: little or no evidence
CYP2C9
  IC50: 11 µM
[8]; biochemical assays
  inhibition of kinase activity: potent, concentration-dependent inhibition
[8]; generally
  potency against intended clinical targets: less than 0.1 μM
[9]
  substrate of BCRP: not a substrate
[10]
  anti-tumor activity in human xenograft tumor models: anti tumor efficacy
[10]; listed as Sitravatinib
  anti-tumor activity in human xenograft tumor models: tumor regression
Human plasma proteins
  bound to human plasma proteins: 98.6%
P-gp
  IC50: 0.838 µM
CYP2B6
  IC50: > 20 µM
CYP2B6; human, highest concentration evaluated (20 μM)
  inhibition at 20 µM: ~50%
CYP2C8
  IC50: 2.9 µM

## enfortumab: Nectin-4 directed ADC: fully human anti-Nectin-4 IgG1 kappa antibody (AGS-22C3) conjugated to MMAE via protease-cleavable maleimidocaproyl valine-citrulline linker
[1]
  steady-state concentrations reached after: 1 treatment cycle
  exposure (AUC) in mild, moderate or severe renal impairment compared to normal renal function: No significant differences
  elimination half-life: 81.6 h
  mean clearance (CL): 0.10 L/h
[1]; 0.5 to 1.25 mg/kg, days 1, 8, 15 of 28-day cycle
  dose proportionality of PK: linear dose-proportional PK
[1]; following administration of enfortumab
  estimated mean volume of distribution at steady state (Vss): 11 L
[1]; in vivo
  accumulation following repeat administration of enfortumab: minimal accumulation
[1]; intravenous infusion
  time of peak concentrations: end of infusion
[1]; population PK
  differences in pharmacokinetics based on age, sex, or race/ethnicity: no clinically significant differences
Nectin-4
  affinity of binding to cells that express Nectin-4: high affinity
Urothelial Carcinoma [11]; EV-103 (pembrolizumab and enfortumab used in combination)
  overall ORR as confirmed by central review: 73%
Urothelial Carcinoma [11]; EV-103, median follow-up 10.4 months
  median DOR: not reached
Urothelial Carcinoma [11]; EV-103
  12-month overall survival rate: 82%
  complete response rate: 16%
  median overall survival: not reached
Urothelial Carcinoma [12]
  complete response rate: 12%
  median DOR: 7.6 months
  median overall survival: 11.7 months
  overall ORR as confirmed by central review: 44%

## pembrolizumab: humanized monoclonal IgG4 kappa antibody that blocks the interaction between PD-1 and its ligands, PD-L1 and PD-L2
[13]; 2 to 10 mg/kg Q3W
  steady-state exposure versus dose: increased dose proportionally
[13]; Q3W regimen
  systemic accumulation: approximately 2.1 fold
[13]; population PK, 2993 patients with various cancers
  geometric mean clearance (CL): 195 mL/day
[13]; population PK
  geometric mean volume of distribution at steady state (Vss): 6.0 L
Urothelial Carcinoma [14]; [16]
  median DOR: 30.1 months
  overall ORR as confirmed by central review: 29%
Urothelial Carcinoma [14]; KEYNOTE-052, overall
  median overall survival: 11.3 months
Urothelial Carcinoma [14]; [17]
  ORR as confirmed by central review: 47%
  median DOR: not reached
  median overall survival: 18.5 months
Urothelial Carcinoma [15]; KEYNOTE-045, all subgroups examined
  OS versus chemotherapy in subgroups: OS benefit over chemotherapy
Urothelial Carcinoma [15]; KEYNOTE-045, patients with CPS≥10
  ORR as confirmed by central review: 20%
Urothelial Carcinoma [15]; KEYNOTE-045, pembrolizumab group
  overall ORR as confirmed by central review: 21%
Urothelial Carcinoma [15]; KEYNOTE-045
  median DOR: not reached
  median overall survival: 10.1 months
